# Earlier results as cited in patent US11547680B2, “Benzalkonium-embedded mesostructured silica compositions and uses of same” (RUTGERS, THE STATE UNIVERSITY OF NEW JERSEY, priority 2018, dated 2023).
# Settings: aqueous solution
substance,measurement,value
benzalkonium chloride [BAC],critical micelle concentration (CMC),ca. 0.5 mM
